# Laboratory results reported in patent publication US11274132B2, “Combined preparations of PKM2 modulators and HMGB1” (Ruprecht-Karls-Universität Heidelberg, priority 2015, dated 2022).
# “Also recorded” adds a separate entry of the source. Like-named read-outs stand apart in the source and are kept apart here. Residues, ends and D or L forms follow the SMILES beside them.
# What was measured:
# colorectal cancer cells = experiment: Crystal violet cytotoxicity assay, cell lines not given; assay type: cell-based
# Protocol: (§1) Human colon carcinoma cell lines SW480, HCT116, HT29 and Caco2, the human glioblastoma cell line U251MG and the Natural killer cell line NK-92 Cl were purchased from ATCC. Cell lines were regularly tested for contamination by multiplex PCR performed in the Genomics and Proteomics Core Facility 2 (DKFZ, Heidelberg, Germany). For experiments, cells were cultured for no more than 10 passages. Rho zero cells were generated as described earlier 1. (Gdynia, G. et al. Danger signaling protein HMGB1 induces a distinct form of cell death accompanied by formation of giant mitochondria. Cancer research 70, 8558-8568). Cells used in the experiments were cultured in RPMI (#1640, colon carcinomas, NK cells) or DMEM high glucose (#41965-039, glioblastoma cells) medium. Rho zero cells were generated as described earlier (Gdynia, G. et al. ibd.). Briefly, cells were cultured in RPMI medium (10% FCS, 1% P/S) supplemented with 250 ng/ml ethidiumbromide, 50 μg/ml L-pyruvate and 5 mg/ml uridine over a period of 12 weeks. For cytotoxicity measurements, cells were cultured in 96-well plates, treated with recombinant human HMGB1 protein (Sigma-Aldrich®), glycyrrhizinic acid ((3β, 18α)-30-hydroxy-11, 30-dioxoolean-12-en-3-yl 2-O-β-D-glucopyranuronosyl-β-D-glucopyranosiduronic acid)) (Sigma-Aldrich®), 10 μM (non-toxic) or 100 μM (cytotoxic) P-M2tide (aa sequence: GGAVDDDpYAQFANGG; #BML-P239-0001; Enzo Life Sciences) or 100 μM ML-265 (Cayman Chemical), then cell viability was assessed by crystal violet staining (Gillies, R. J., Didier, N. & Denton, M. Determination of cell number in monolayer cultures. Analytical biochemistry 159, 109-113 (1986)). Malic enzyme 1 knock-down was performed with 40 nM siRNA using lipofectamine in 6-well plates followed by treatment with 80 nM HMGB1 for 72 h. Sequences of siRNA were: ME1, 5′-[…]-3′ and scrambled control 5′-CCUGCAGUACUUCAAGCGGtt-3′. PKM2 siRNA was from Santa Cruz. A nonspecific siRNA served as control (Dharmacon, Schwerte, Germany). For overexpression of PKM2 or ME1, cells were transfected with pCMV-PKM2 (Sino Biological Inc., Beijing, China) or pCMV-ME1 (OriGene, Rockville, Md., USA) using Lipofectamine 2000. For cytotoxicity measurements confluent cells were cultured in 96-well plates if not otherwise indicated. Cytotoxic activity of supernatants from stimulated NK cells was assessed in 96-well plates for 3 days with RPMI medium as reference. Recombinant human HMGB1 (10 ng, Sigma) suited as positive control. For mass isotopomer assays, cells were cultured in glucose- or glutamine-free medium supplemented with either uniformly labeled (U)-13C-D-glucose or U-13C-glutamine (Sigma-Aldrich®).
# [1] = system: SW480 colorectal cancer cells; experiment: Crystal violet cytotoxicity assay; assay type: cell-based; settings: 72 h
# Protocol: as §1
# [2] = system: HCT116 colorectal cancer cells; experiment: Crystal violet cytotoxicity assay; assay type: cell-based; settings: 72 h
# Protocol: as §1
# HT29 cells = experiment: Crystal violet cytotoxicity assay; assay type: cell-based; settings: 80 nM or 160 nM, 72 h
# Protocol: as §1
# [3] = CellTiter-Glo Luminescent Cell Viability Assay; assay type: cell-based, human; settings: human, CLL cells from a patient, DASA 100 μM, read-out: Viable cells [DASA]
# CLL cells = experiment: CellTiter-Glo Luminescent Cell Viability Assay; assay type: cell-based, human
# PKM2 = PKM2 (Homo sapiens, UniProt P14618); experiment: Immunoprecipitation with 125I-labeled HMGB1 (PKM2 pull-down); assay type: binding; set-up: endogenous in cells; settings: P-M2tide at non-cytotoxic concentrations
# Protocol: FIG. 6: Co-administration of HMGB1 and an activator (A left and right) or an inhibitor (B) of PMK2 has a synergistic cytotoxic effect, as determined in the crystal violet cytotoxicity assay (assays were performed in duplicate, * indicates p<0.05). (C) Immunoprecipitation with I125-labeled HMGB1 (PKM2 pull-down). HMGB1, like phosphotyrosine-peptides, binds close to the allosteric center of PKM2, leading to a competition in binding.
# [4] = NK cell derived HMGB1 approx. 16 nM, recombinant human HMGB1 80 nM
# Sequence of PKM2 (P14618 whole entry): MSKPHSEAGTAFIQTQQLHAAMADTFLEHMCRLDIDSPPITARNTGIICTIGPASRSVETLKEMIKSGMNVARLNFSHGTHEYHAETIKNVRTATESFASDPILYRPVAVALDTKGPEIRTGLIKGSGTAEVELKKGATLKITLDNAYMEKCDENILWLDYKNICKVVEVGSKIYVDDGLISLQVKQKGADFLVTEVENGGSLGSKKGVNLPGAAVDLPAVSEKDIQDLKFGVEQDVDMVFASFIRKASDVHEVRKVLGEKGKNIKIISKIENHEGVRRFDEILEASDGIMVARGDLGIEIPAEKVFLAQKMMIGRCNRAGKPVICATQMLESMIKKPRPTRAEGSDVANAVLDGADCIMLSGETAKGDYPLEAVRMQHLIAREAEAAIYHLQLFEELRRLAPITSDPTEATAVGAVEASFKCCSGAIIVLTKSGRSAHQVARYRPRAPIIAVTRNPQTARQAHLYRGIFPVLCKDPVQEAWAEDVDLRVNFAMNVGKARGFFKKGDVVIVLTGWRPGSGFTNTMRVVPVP
molecule,measurement,setting,value
HPLC-purified HMGB1: HPLC-purified HMGB1 from the supernatant of Nkp30 stimulated blood donor NK cells,cytotoxicity,"colorectal cancer cells; 80 nM, 24 h, diluted in IgG1 control supernatant",substantial cytotoxicity
"CC[C@H]1/C=C/C=C/C[C@@H](C)[C@H](O)[C@@](C)(O)C(=O)[C@@H](C)[C@H](O)[C@@H](C)C(=O)[C@@H](C)[C@H](O)[C@@H](C)/C=C/C(=O)O[C@@H]2[C@H](C)[C@H](CC1)O[C@]1(CC[C@H](C)[C@H](C[C@@H](C)O)O1)[C@H]2C [oligomycin, reference compound]",cell death,[1]; oligomycin 10 ng/ml,rapid cell death
same,cell death,[2]; oligomycin 10 ng/ml,rapid cell death
NK cell derived HMGB1: HMGB1 isolated from the cytosolic granules of the NK cell line NK-92 CI by HPLC (eluate #38),side-by-side cytotoxicity versus recombinant HMGB1,HT29 cells,higher cytotoxicity than recombinant HMGB1
same,cell death (cytotoxicity),[1]; [4],efficiently killed
same,cell death (cytotoxicity),[2]; [4],efficiently killed
"O=S(=O)(c1ccc2c(c1)OCCO2)N1CCN(S(=O)(=O)c2c(F)cccc2F)CC1 [DASA, 1-(2,6-Difluorophenylsulfonyl)-4-(2,3-dihydrobenzo[b][1,4]dioxin-6-ylsulfonyl)piperazine]",viability at 100 μM,"[3]; patient P0010, sample 13PB0501",100%
same,viability at 100 μM,"[3]; patient P0010, sample 14PB0132",67%
same,viability at 100 μM,"[3]; patient P0074, sample 14BP0079",37%
same,viability at 100 μM,"[3]; patient P0369, sample 13PB0555",100%
same,viability at 100 μM,"[3]; patient P0460, sample 14PB0471",72%
same,viability at 100 μM,"[3]; patient P0641, sample 13PB0500",100%
same,viability at 100 μM,"[3]; patient P0641, sample 13PB0649",88%
same,viability at 100 μM,"[3]; patient P0645, sample 13PB0473",90%
same,viability at 100 μM,"[3]; patient P0701, sample 14PB0451",100%
"[N-]=[N+]=CC(=O)CC[C@H](N)C(=O)O [L-DON, 6-diazo-5-oxo-L-norleucine]",cytotoxicity of glutaminolysis inhibition together with HMGB1,"colorectal cancer cells; L-DON 1 μM with HMGB1, glucose deprived and glucose supplemented medium",synergistic cytotoxicity
"CC(C)[C@H](NC(=O)[C@H](C)NC(=O)CNC(=O)CN)C(=O)N[C@@H](CC(=O)O)C(=O)N[C@@H](CC(=O)O)C(=O)N[C@@H](CC(=O)O)C(=O)N[C@@H](Cc1ccc(OP(=O)(O)O)cc1)C(=O)N[C@@H](C)C(=O)N[C@@H](CCC(N)=O)C(=O)N[C@@H](Cc1ccccc1)C(=O)N[C@@H](C)C(=O)N[C@@H](CC(N)=O)C(=O)NCC(=O)NCC(=O)O [P-M2tide, GGAVDDDpYAQFANGG] (HELM PEPTIDE1{G.G.A.V.D.D.D.[O=C([C@H](Cc1ccc(OP(=O)(O)O)cc1)N[*:1])[*:2]].A.Q.F.A.N.G.G}$$$$V2.0)",Viable cells [PM2-tide],"CLL cells; patient P0010, sample 13PB0501, PM2-tide 100 μM, 250 µM",100%
same,Viable cells [PM2-tide],"CLL cells; patient P0010, sample 14PB0132, PM2-tide 100 μM, 250 µM",75%
same,Viable cells [PM2-tide],"CLL cells; patient P0074, sample 14BP0079, * responding to 100 μM PM2-tide",46%*
same,Viable cells [PM2-tide],"CLL cells; patient P0369, sample 13PB0555, PM2-tide 100 μM, 250 µM",100%
same,Viable cells [PM2-tide],"CLL cells; patient P0460, sample 14PB0471, * responding to 100 μM PM2-tide",56%*
same,Viable cells [PM2-tide],"CLL cells; patient P0641, sample 13PB0500, PM2-tide 100 μM, 250 µM",100%
same,Viable cells [PM2-tide],"CLL cells; patient P0641, sample 13PB0649, PM2-tide 100 μM, 250 µM",93%
same,Viable cells [PM2-tide],"CLL cells; patient P0645, sample 13PB0473, PM2-tide 100 μM, 250 µM",91%
same,Viable cells [PM2-tide],"CLL cells; patient P0701, sample 14PB0451, PM2-tide 100 μM, 250 µM",100%
same,toxicity,colorectal cancer cells; 10 μM P-M2tide,non-toxic
same,toxicity,colorectal cancer cells; 100 μM P-M2tide,cytotoxic
"Cn1c2cc([S+](C)[O-])sc2c2cnn(Cc3cccc(N)c3)c(=O)c21 (stereo not drawn) [ML-265, 6-(3-aminobenzyl)-4-methyl-2-(methylsulfinyl)-4,6-dihydro-5H-thieno[2′,3′:4,5]pyrrolo[2,3-d]pyridazin-5-one]",competition with binding of HMGB1 to PKM2,PKM2,did not compete
same,competition with binding of HMGB1 to PKM2,PKM2; listed as ML265,does not compete
same,induction of cell death,"colorectal cancer cells; 100 μM, 24 h",did not induce cytotoxicity; also recorded: not able to induce cell death
